US8124359B2, “Use of additives for the reduction of non-specific binding in assays” (Aokin AG, priority 2006, dated 2012)
Structures can show the parent of a compound that is named as a salt.

What was measured:
[1] = test system: anti-thyroxine; test: Velocity of the reaction between F-thyroxine and anti-thyroxine in the presence of BSA (Examples 8-16); assay type: binding; conditions: BSA 0.1 μM, increasing additive concentrations
Description: (§1) The buffer and stock solutions described in Example 1 and the measurement methodology described in Example 2 were used.
• Fluorescein-Thyroxine, 1 nM • Anti-Thyroxine (1:300) • PBS with 5% 2-propanol • BSA 0.1 μM • Sodium benzoate in different concentrations
• Fluorescein-Thyroxine, 1 nM • Anti-Thyroxine (1:300) • PBS with 5% 2-propanol • BSA 0.1 μM • Sodium p-toluene sulfonate in different concentrations
• Fluorescein-Thyroxine, 1 nM • Anti-Thyroxine (1:300) • PBS with 4.75% 2-propanol • BSA 0.1 μM • Potassium benzoate in different concentrations
• Fluorescein-Thyroxine, 1 nM • Anti-Thyroxine (1:300) • PBS with 4.75% 2-propanol • BSA 0.1 μM • Sodium chloroacetate in different concentrations
• Fluorescein-Thyroxine, 1 nM • Anti-Thyroxine (1:300) • PBS with 4.75% 2-propanol • BSA 0.1 μM • Sodium dichloroacetate in different concentrations
[…]. The buffer and stock solutions described in Example 1 and the measurement methodology described in Example 2 were used.
• Fluorescein-Thyroxine, 1.5 nM • Anti-Thyroxine (1:300) • PBS with 4.75% 2-propanol • BSA 0.1 μM • Sodium Salicylate in different concentrations
• Fluorescein-Thyroxine, 1.5 nM • Anti-Thyroxine (1:300) • PBS with 4.75% 2-propanol • BSA 0.1 μM • N-Hydroxysuccinimide in different concentrations
• Fluorescein-Thyroxine, 1.5 nM • Anti-Thyroxine (1:300) • PBS with 4.75% 2-propanol • BSA 0.1 μM • Sodium Chloride in different concentrations

[2] = test system: anti-thyroxine; test: Kinetic curve, rhodamine-labeled thyroxine/anti-thyroxine system in 0.5 M sodium benzoate with 5% isopropanol (Example 5); assay type: binding
Description: The protocol used is described below. The additive was sodium benzoate combined with an organic solvent (5% isopropanol). • 1. Use clean glassware, washed with isopropanol. • 2. Make a 0.5 M solution of sodium benzoate. • 3. Make a solution of 5% isopropanol in 0.5 M sodium benzoate (i.e., 2.5 ml 2-propanol in 47.5 mL 0.5 M aqueous sodium benzoate). This will be named BUFFER. • 4. […] 600 μl Buffer added to 1 mL curvette. The absorbance spectrum is measured using a UV-VIS spectrophotometer, 400 nm to 800 nm. This spectrum is used to define the absorbance of the background as zero and to control that it is actually zero. • 6. […] Measure the absorbance UV-VIS, 400 nm to 800 nm. […] Using a rotating polarometer with a 75 watt Xenon short-arc lamp. The rotating polarizer has three channels: Polarization (P), Total Intensity (V+H), and V−H. • 8. […] Measure P, V+H and V−H after short mixing and 30 second equilibration. […] Add 10 μl. Antibody solution (anti-thyroxine in PBS, dilution unknown, probably 5 mg in 1000 μl PBS and further diluted 1:10 in PBS). New volume is 3017 μl. Measure P, V+H and V−H after short mixing.

[3] = test system: human sera; test: Effect of additive on non-specific binding of F-thyroxine in human sera (Example 4); conditions: Buffer 2 (1.0 M sodium benzoate), 50 μl human sera
Description: (§2) With reference to FIG. 2, experiments were performed to determine the effects of an additive on specific and non-specific binding. The additive used in the present example was sodium benzoate. The materials described in Example 1 and the measurement methodology described in Example 2 were used. In particular, 50 μl of human sera was added to 3000 μl of Buffer 2 or PBS at pH 7.5 (no additive control) and thoroughly mixed by pipetting for 1 to 10 seconds. To this was added 0 μl of unlabeled thyroxine and 0 μl, 20 μl or 50 μl of anti-sera stock solution. The mixture was thoroughly mixed by pipetting for 1 to 10 seconds. Then, 5 μl of the fluorescein-labeled thyroxine stock solution was added. This was followed by mixing for 1 to 10 seconds by pipetting. Then, d(V−H)/dt measurements were made versus time for between 10 and 600 seconds. This protocol was followed for Experiments 6-9 in Table 2.

[4] = test system: anti-thyroxine sera; test: Effect of additive on specific binding of F-thyroxine to anti-thyroxine in the presence of human sera (Example 4); conditions: Buffer 2 (1.0 M sodium benzoate), 50 μl human sera, 20 or 50 μl anti-sera
Description: as §2

[5] = test system: serum components; test: Non-specific binding of Rhodamine-Thyroxine to serum components (Example 17); conditions: Rox-Thyroxine 1.5 nM, serum 1:500, PBS with 10% 2-propanol, sodium benzoate in different concentrations
Description: (§3) The serum was diluted 1:500 in PBS/10% 2-propanol The buffer and stock solutions, as well as the measurement methodology described in Example 5 were used.
(§4) • Rox-Thyroxine, 1.5 nM • Anti-Thyroxine (1:300) • PBS with 10% 2-propanol • Serum 1:500 • Sodium benzoate in different concentrations

[6] = test system: anti-thyroxine; test: Velocity of the reaction between F-thyroxine and anti-thyroxine in the absence of non-specific binding components (Example 7); conditions: sodium benzoate increased to 1.0 molar; no serum or BSA; PBS with 5% 2-propanol, F-thyroxine 1 nM
Description: as §1
• Fluorescein-thyroxine, 1 nM • Anti-Thyroxine (1:300) • PBS with 5% 2-propanol • Sodium Benzoate in different concentrations

[7] = test system: serum components; test: Initial non-specific binding between F-thyroxine and serum components (Example 6); conditions: experiments 6-3 through 6-7: serum, increasing sodium benzoate up to 1.0 M; reduced from 195
Description: as §1
(§5) • Fluorescein-Thyroxine (1 nM) • Anti-Thyroxine (1:300 dilution) • PBS with 10% 2-propanol • Benzoate in different concentrations • At t=0 s antibody was pipetted into the cuvette. • A 3 ml cuvette was used, the total volume in the cuvette was 2 ml. A small magnetic stirrer was used for mixing
(§6) In example 6, the reactions between F-Thyroxine and Anti-Thyroxine, which were carried out in the presence of serum under different reaction conditions, are compared (FIG. 4). There are seven different amounts of sodium benzoate, between 0 and 1.0 Molar in the cuvette. The reaction was performed in a phosphate buffered saline buffer containing 10% 2-propanol. The table in FIG. 4 lists the two important parameters.

[8] = test system: anti-thyroxine; test: Velocity of the reaction between Rhodamine-Thyroxine and anti-thyroxine in serum (Example 17); assay type: binding; conditions: Rox-Thyroxine 1.5 nM, serum 1:500, PBS with 10% 2-propanol, increasing sodium benzoate
Description: as §3, §4

[9] = test system: anti-thyroxine; test: Rate of the reaction between F-thyroxine and anti-thyroxine, with and without serum (Example 6); assay type: binding; conditions: experiments 6-3 through 6-7: serum, increasing sodium benzoate up to 1.0 M
Description: as §1, §5, §6

[10] = test system: polyclonal anti-thyroxine sera; test: Fluorescence polarization kinetic measurement, F-thyroxine/anti-thyroxine system (Example 3); assay type: binding; conditions: Experiment 5: unlabeled thyroxine 0-20 μl, antiserum 20 μl, Buffer 1 (0.5 M sodium benzoate)
Description: An initial stock solution of anti-thyroxine sera was prepared. In particular, 1 ml of polyclonal anti-thyroxine sera containing 10 mg/ml IgG (Sigma) was diluted 1:5 in PBS buffer, pH 7.5. The final concentration of IgG in the stock solution was about 2 mg/ml.
An initial stock solution of fluorescein-labeled analyte (F-thyroxine) was prepared. Fluorescein-labeled thyroxine at 1248 g/mol in a lyophilized form was obtained from emp Biotech GmbH. First, 5 mg (4×10^−6 moles) of F-thyroxine was diluted to 10 ml in PBS to get a 4.1×10^−4 M solution of F-thyroxine. This solution was then further diluted 100-fold in PBS. The final concentration of F-thyroxine in the stock solution was about 4.1×10^−6 M.
The following is a protocol useful for performing a fluorescein polarization assay of the present invention. All steps are performed at ambient temperature. […] Pipette the mixture formed in step 5 up and down for 1 to 10 seconds and begin measuring polarization (P), Polarized Fluorescence Intensity Difference (V−H) or quenching (V+H total intensity) versus time for between 10 and 7200 seconds after end of mixing in a direct readout polarometer or between 0.1 and 7200 seconds after end of mixing with a stopped-flow polarometer. • 7. […] Against a standard curve, an unknown amount of thyroxine can be measured by comparison of initial rate measurement (speed of reaction) of unknown with the standard curve. […]

[11] = PBS with 4.75% 2-propanol, F-thyroxine 1.5 nM
[12] = PBS with 4.75% 2-propanol, F-thyroxine 1 nM
[13] = PBS with 5% 2-propanol, F-thyroxine 1 nM

Compound: [Cl-].[Na+] [sodium chloride]
- rate of the antibody reaction [1, 11]: not substantially slowed

Compound: O=C([O-])c1ccccc1O.[Na+] [sodium salicylate]
- rate of the antibody reaction [1, 11]: substantially slowed

Compound: O=C1CCC(=O)N1O [N-hydroxysuccinimide]
- rate of the antibody reaction [1, 11]: substantially slowed

Compound: 5-carboxy-X-rhodamine-thyroxine [ROX-T4]
- values of P, V−H and V+H over the 600 second time course ([2]; 0.5 M sodium benzoate, 5% isopropanol): increase
- V − H ([2]; 10 s after antibody): 660
- V − H ([2]; 13 s after antibody): 860
- V − H ([2]; 18 s after antibody): 936
- V − H ([2]; 20 s after antibody): 1006
- V − H ([2]; 26 s after antibody): 1130
- V − H ([2]; 30 s after antibody): 1175
- V − H ([2]; 33 s after antibody): 1200
- V − H ([2]; 44 s after antibody): 1259
- V − H ([2]; 49 s after antibody): 1280
- V − H ([2]; 53 s after antibody): 1290
- P (mP) ([2]; 62 s after antibody): 392 mP
- P (mP) ([2]; 70 s after antibody): 395 mP
- V − H ([2]; 78 s after antibody): 1345
- V + H ([2]; 83 s after antibody): 3375
- P (mP) ([2]; 95 s after antibody): 397 mP
- P (mP) ([2]; 600 s after antibody): 398 mP
- V + H ([2]; 600 s after antibody): 3320
- V − H ([2]; 600 s after antibody): 1340
- P (mP) ([2]; before antibody, time 0 s): 75 mP
- V + H ([2]; before antibody, time 0 s): 2291
- V − H ([2]; before antibody, time 0 s): 178

Compound: O=C([O-])c1ccccc1.[K+] [potassium benzoate]
- rate of the antibody reaction [1, 12]: substantially slowed

Compound: O=C([O-])c1ccccc1.[Na+] [sodium benzoate]
- effect on non-specific binding [3]: inhibits non-specific binding
- effect on specific binding [4]: does not inhibit specific binding
- non-specific binding due to the presence of serum components [5]: substantially reduced
- reaction rate between F-thyroxine and antibody [6]: slowed dramatically
- polarization value before the addition of antibody (t=0) [7]: 100 mP
- rate of the reaction [8]: substantially slowed
- reaction rate relative to its value at zero additive [9]: about 30%
- rate of change of P at t=5 s ([9]; PBS with 10% 2-propanol): 3.2 mP/s
- rate of the antibody reaction [1, 13]: substantially slowed

Compound: Cc1ccc(S(=O)(=O)O)cc1.[Na] [sodium p-tolulene sulfonate, sodium p-toluene sulfonate]
- rate of the antibody reaction [1, 13]: substantially slowed

Compound: N[C@@H](Cc1cc(I)c(Oc2cc(I)c(O)c(I)c2)c(I)c1)C(=O)O [thyroxine]
- competitive inhibition of the binding of F-thyroxine to its specific antibody [10]: inhibition of the binding of F-thyroxine to its specific antibody by unlabeled thyroxine occurred

Compound: O=C([O-])C(Cl)Cl.[Na+] [sodium dichloroacetate]
- rate of the antibody reaction [1, 12]: substantially slowed

Compound: N=C(N)N [guanidine hydrochloride]
- rate of the antibody reaction [1, 13]: substantially slowed

Compound: O=C([O-])CCl.[Na+] [sodium chloroacetate]
- rate of the antibody reaction [1, 12]: substantially slowed
